Results taken from US6703397B2, “Pyrimidinyl methyl indole derivatives with antibacterial activity” (Basilea Pharmaceutica AG, priority 2000, dated 2004).
Values after ≈ are worked out from the molar mass of the structure shown. Where two headings read alike, the source gives them in different places.

Columns and labels:
[1] = test system: Streptococcus pneumoniae ATCC 49619; assay: MIC against Streptococcus pneumoniae ATCC 49619 (trimethoprim- and penicillin-susceptible reference strain); type: cell-based
Protocol: The following Tables 1 and 2 contain inhibitory concentrations determined in the above test for representative members of the class of compound defined by formula I. The following microorganisms were tested: Col. 1: […]

[2] = biological target: purified DHFR of strain Spn1/1 (Streptococcus pneumoniae serotype 4, UniProt Q54801, E20D/I100L/L135F/P70S/Q81H); assay: biochemical
Chain of purified DHFR of strain Spn1/1 (Q54801 whole entry E20D/P70S/Q81H/I100L/L135F): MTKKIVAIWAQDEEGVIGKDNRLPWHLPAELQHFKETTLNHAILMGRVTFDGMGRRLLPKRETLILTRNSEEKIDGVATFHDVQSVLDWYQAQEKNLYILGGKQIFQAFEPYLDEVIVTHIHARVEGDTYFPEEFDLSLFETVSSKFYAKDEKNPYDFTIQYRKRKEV
Description: Col. 3: DHFR Spn1/1; μM)—the IC50-values in μM against the purified DHFR of the above strain Spn1/1; of Streptococcus pneumoniae.

[3] = test system: Streptococcus pneumoniae 1/1; assay: MIC against Streptococcus pneumoniae 1/1 (trimethoprim- and penicillin-resistant clinical isolate, serotype 6); type: cell-based
Protocol: The following Tables 1 and 2 contain inhibitory concentrations determined in the above test for representative members of the class of compound defined by formula I. The following microorganisms were tested: […]
Col. 2: MIC Spn1/1; μg/ml (Streptococcus pneumoniae 1/1, Trimethoprim- and Penicillin-resistant, Serotype 6; clinical isolate, stored at −80° C.). Lit.: H. Locher et al., Can. J. Infect. Dis. 6: Suppl. C, p 469C.

[4] = ATCC49619, Streptococcus pneumoniae ATCC 49619, trimethoprim- and penicillin-susceptible, read-out: Spn 49619 MIC
[5] = Streptococcus pneumoniae 1/1, trimethoprim- and penicillin-resistant, serotype 6, read-out: Spn 1/1 MIC

SMILES | MIC [1, 4] | IC50 [2] | MIC [3, 5] | MIC ([1]; Streptococcus pneumoniae, ATCC49619, read-out: Spn 49619 MIC) | MIC ([3]; Streptococcus pneumoniae, 1/1, read-out: Spn 1/1 MIC)
CCn1cc(CN2CCOCC2)c2c(OS(=O)(=O)CC3CC3)cc(Cc3cnc(N)nc3N)cc21 [Example 10e, Cyclopropyl-methanesulfonic acid 6-(2,4-diamino-pyrimidin-5-ylmethyl)-1-ethyl-3-morpholin-4-ylmethyl-1H-indol-4-yl ester] | 0.125 µg/mL (≈ 0.25 µM) | 4.8 nM | 4 µg/mL (≈ 7.99 µM) |  | 
CCn1cc(C=O)c2c(OS(=O)(=O)C(C)C)cc(Cc3cnc(N)nc3N)cc21 [Example 11, Propane-2-sulfonic acid 6-(2,4-diamino-pyrimidin-5-ylmethyl)-1-ethyl-3-formyl-1H-indol-4-yl ester] |  | 93 nM |  | 0.25 µg/mL (≈ 0.599 µM) | > 8 µg/mL
CCn1cc(C)c2c(OS(=O)(=O)C(C)C)cc(Cc3cnc(N)nc3N)cc21 [Example 12a, Propane-2-sulfonic acid 6-(2,4-diamino-pyrimidin-5-ylmethyl)-1-ethyl-3-methyl-1H-indol-4-yl ester] | 0.125 µg/mL (≈ 0.31 µM) | 15 nM | 4 µg/mL (≈ 9.91 µM) |  | 
CCn1cc(C)c2c(OS(=O)(=O)CC3CC3)cc(Cc3cnc(N)nc3N)cc21 [Example 12b, Cyclopropyl-methanesulfonic acid 6-(2,4-diamino-pyrimidin-5-ylmethyl)-1-ethyl-3-methyl-1H-indol-4-yl ester] | ≤ 0.015 µg/mL | 3.7 nM | 4 µg/mL (≈ 9.63 µM) |  | 
CCn1cc(Br)c2c(OCC3CC3)cc(Cc3cnc(N)nc3N)cc21 [Example 13, 5-(3-Bromo-4-cyclopropylmethoxy-1-ethyl-1H-indol-6-ylmethyl)-pyrimidine-2,4-diamine] | 0.125 µg/mL (≈ 0.3 µM) | 42 nM | 4 µg/mL (≈ 9.61 µM) |  | 
CCOc1cc(Cc2cnc(N)nc2N)cc2c1cc(C)n2CC [Example 15a, 5-(4-Ethoxy-1-ethyl-2-methyl-1H-indol-6-ylmethyl)-pyrimidine-2,4-diamine] | 0.25 µg/mL (≈ 0.768 µM) | 56 nM | 8 µg/mL (≈ 24.6 µM) |  | 
CCn1c(C)cc2c(OCC3CC3)cc(Cc3cnc(N)nc3N)cc21 [Example 15b, 5-(4-Cyclopropylmethoxy-1-ethyl-2-methyl-1H-indol-6-ylmethyl)-pyrimidine-2,4-diamine] | 0.5 µg/mL (≈ 1.42 µM) | 20 nM | 8 µg/mL (≈ 22.8 µM) |  | 
CCOc1cc(Cc2cnc(N)nc2N)cc2c1c(-c1cccc(OC)c1)cn2CC [Example 17a, 5-[4-Ethoxy-1-ethyl-3-(3-methoxy-phenyl)-1H-indol-6-ylmethyl]-pyrimidine-2,4-diamine] | 0.5 µg/mL (≈ 1.2 µM) | 6.3 nM | 8 µg/mL (≈ 19.2 µM) |  | 
CCn1cc(-c2cccc(OC)c2)c2c(OC)cc(Cc3cnc(N)nc3N)cc21 [Example 17b, 5-[1-Ethyl-4-methoxy-3-(3-methoxy-phenyl)-1H-indol-6-ylmethyl]-pyrimidine-2,4-diamine] | 0.5 µg/mL (≈ 1.24 µM) | 4.3 nM | 8 µg/mL (≈ 19.8 µM) |  | 
